Results taken from the NIST ThermoML archive (doi:10.1016/j.jct.2005.04.018).

Settings: Liquid, Vibrating tube method

CCCCCC[n+]1ccn(C)c1.O=S(=O)([N-]S(=O)(=O)C(F)(F)F)C(F)(F)F
Settings	mass density [kg/m3]
298.15 K, 100 kPa	1370.81
298.15 K, 1830 kPa	1372.13
298.15 K, 10020 kPa	1378.18
298.15 K, 14980 kPa	1381.7
298.15 K, 19750 kPa	1384.98
298.15 K, 25860 kPa	1389.1
298.15 K, 31480 kPa	1392.73
298.15 K, 37770 kPa	1396.74
298.15 K, 44170 kPa	1400.64
298.15 K, 50750 kPa	1404.48
298.15 K, 59590 kPa	1409.53
299.15 K, 100 kPa	1369.96
299.15 K, 1830 kPa	1371.27
299.15 K, 10020 kPa	1377.3
299.15 K, 14980 kPa	1380.81
299.15 K, 19750 kPa	1384.12
299.15 K, 25860 kPa	1388.22
299.15 K, 31480 kPa	1391.88
299.15 K, 37770 kPa	1395.86
299.15 K, 44170 kPa	1399.77
299.15 K, 50750 kPa	1403.7
299.15 K, 59590 kPa	1408.77
300.15 K, 100 kPa	1368.97
300.15 K, 1830 kPa	1370.29
300.15 K, 10020 kPa	1376.36
300.15 K, 14980 kPa	1379.86
300.15 K, 19750 kPa	1383.21
300.15 K, 25860 kPa	1387.32
300.15 K, 31480 kPa	1391
300.15 K, 37770 kPa	1395.01
300.15 K, 44170 kPa	1398.88
300.15 K, 50750 kPa	1402.84
300.15 K, 59590 kPa	1407.93
301.15 K, 100 kPa	1368.11
301.15 K, 1830 kPa	1369.42
301.15 K, 10020 kPa	1375.49
301.15 K, 14980 kPa	1379.01
301.15 K, 19750 kPa	1382.28
301.15 K, 25860 kPa	1386.44
301.15 K, 31480 kPa	1390.11
301.15 K, 37770 kPa	1394.07
301.15 K, 44170 kPa	1398.06
301.15 K, 50750 kPa	1401.99
301.15 K, 59590 kPa	1407.14
302.15 K, 100 kPa	1367.15
302.15 K, 1830 kPa	1368.47
302.15 K, 10020 kPa	1374.56
302.15 K, 14980 kPa	1378.1
302.15 K, 19750 kPa	1381.43
302.15 K, 25860 kPa	1385.56
302.15 K, 31480 kPa	1389.24
302.15 K, 37770 kPa	1393.28
302.15 K, 44170 kPa	1397.22
302.15 K, 50750 kPa	1401.19
302.15 K, 59590 kPa	1406.37
303.15 K, 100 kPa	1366.24
303.15 K, 1830 kPa	1367.56
303.15 K, 10020 kPa	1373.64
303.15 K, 14980 kPa	1377.17
303.15 K, 19750 kPa	1380.47
303.15 K, 25860 kPa	1384.59
303.15 K, 31480 kPa	1388.3
303.15 K, 44170 kPa	1396.31
303.15 K, 50750 kPa	1400.29
303.15 K, 59590 kPa	1405.51
308.15 K, 100 kPa	1361.65
308.15 K, 1830 kPa	1362.96
308.15 K, 10020 kPa	1369.05
308.15 K, 14980 kPa	1372.62
308.15 K, 19750 kPa	1375.95
308.15 K, 25860 kPa	1380.12
308.15 K, 31480 kPa	1383.86
308.15 K, 37770 kPa	1387.93
308.15 K, 44170 kPa	1391.98
308.15 K, 50750 kPa	1396.05
308.15 K, 59590 kPa	1401.4
313.15 K, 100 kPa	1357.01
313.15 K, 1830 kPa	1358.32
313.15 K, 10020 kPa	1364.45
313.15 K, 14980 kPa	1368.01
313.15 K, 19750 kPa	1371.36
313.15 K, 25860 kPa	1375.57
313.15 K, 31480 kPa	1379.34
313.15 K, 37770 kPa	1383.47
313.15 K, 44170 kPa	1387.6
313.15 K, 50750 kPa	1391.76
313.15 K, 59590 kPa	1397.25
318.15 K, 100 kPa	1352.32
318.15 K, 1830 kPa	1353.62
318.15 K, 10020 kPa	1359.84
318.15 K, 14980 kPa	1363.45
318.15 K, 25860 kPa	1371.1
318.15 K, 31480 kPa	1374.91
318.15 K, 37770 kPa	1379.09
318.15 K, 44170 kPa	1383.28
318.15 K, 50750 kPa	1387.51
323.15 K, 100 kPa	1348.05
323.15 K, 1830 kPa	1349.36
323.15 K, 10020 kPa	1355.55
323.15 K, 14980 kPa	1359.13
323.15 K, 19750 kPa	1362.5
323.15 K, 25860 kPa	1366.73
323.15 K, 31480 kPa	1370.56
323.15 K, 37770 kPa	1374.72
323.15 K, 44170 kPa	1378.88
323.15 K, 50750 kPa	1383.17
325.15 K, 100 kPa	1346.34
325.15 K, 1830 kPa	1347.7
325.15 K, 10020 kPa	1354.03
325.15 K, 14980 kPa	1357.71
325.15 K, 19750 kPa	1361.18
325.15 K, 25860 kPa	1365.48
325.15 K, 31480 kPa	1369.35
325.15 K, 37770 kPa	1373.57
325.15 K, 44170 kPa	1377.76
325.15 K, 50750 kPa	1382.02
327.15 K, 100 kPa	1344.39
327.15 K, 1830 kPa	1345.74
327.15 K, 10020 kPa	1352.05
327.15 K, 14980 kPa	1355.75
327.15 K, 19750 kPa	1359.21
327.15 K, 25860 kPa	1363.58
327.15 K, 31480 kPa	1367.53
327.15 K, 37770 kPa	1371.82
327.15 K, 44170 kPa	1376.09
327.15 K, 50750 kPa	1380.39
329.15 K, 100 kPa	1342.33
329.15 K, 1830 kPa	1343.71
329.15 K, 10020 kPa	1350.14
329.15 K, 14980 kPa	1353.87
329.15 K, 19750 kPa	1357.38
329.15 K, 25860 kPa	1361.77
329.15 K, 31480 kPa	1365.68
329.15 K, 37770 kPa	1369.99
329.15 K, 44170 kPa	1374.26
329.15 K, 50750 kPa	1378.59
331.15 K, 100 kPa	1340.37
331.15 K, 1830 kPa	1341.75
331.15 K, 10020 kPa	1348.2
331.15 K, 14980 kPa	1351.91
331.15 K, 19750 kPa	1355.44
331.15 K, 25860 kPa	1359.84
331.15 K, 31480 kPa	1363.79
331.15 K, 37770 kPa	1368.1
331.15 K, 44170 kPa	1372.39
331.15 K, 50750 kPa	1376.72
333.15 K, 100 kPa	1338.24
333.15 K, 1830 kPa	1339.65
333.15 K, 10020 kPa	1346.2
333.15 K, 14980 kPa	1349.99
333.15 K, 19750 kPa	1353.57
333.15 K, 25860 kPa	1358.01
333.15 K, 31480 kPa	1361.98
333.15 K, 37770 kPa	1366.34
333.15 K, 44170 kPa	1370.63
333.15 K, 50750 kPa	1374.95
